Reference: the NIST ThermoML archive (doi:10.1016/j.jct.2011.06.001)

How the values were obtained:
[1] = Crystal; DTA
[2] = Molar enthalpy of transition or fusion; conditions: Crystal; DSC
[3] = molar heat capacity at constant pressure; conditions: 101.33 kPa, Small sample (50 mg) DSC
[4] = molar enthalpy of vaporization or sublimation; conditions: 333.15 K, Crystal

[CH]1C=CC=C1.[CH]1C=CC=C1.[Fe] [ferrocene]
Conditions	Molar enthalpy of transition or fusion [kJ/mol]	Normal melting temperature [°C]
[1]	–	175
[2]	17.8	–

molar heat capacity at constant pressure [J/K/mol], [3]
Conditions	Crystal	Gas
293 K	186.22	163.5
294 K	186.78	164.13
295 K	187.52	164.76
296 K	188.08	165.39
297 K	189.01	166.02
298 K	189.75	166.65
298.15 K	189.75	–
299 K	190.5	167.27
300 K	191.24	167.9
301 K	191.8	168.53
302 K	192.36	169.15
303 K	193.1	169.78
304 K	193.84	170.4
305 K	194.4	171.03
306 K	195.15	171.65
307 K	195.7	172.27
308 K	196.45	172.9
309 K	197.19	173.52
310 K	197.94	174.14
311 K	198.31	174.76
312 K	199.24	175.38
313 K	199.8	176
314 K	200.54	176.61
315 K	201.29	177.23
316 K	202.03	177.85
317 K	202.77	178.46
318 K	203.33	179.07
319 K	204.08	179.69
320 K	204.45	180.3
321 K	205.38	180.91
322 K	205.94	181.52
323 K	207.05	182.13
324 K	207.61	182.74
325 K	208.35	183.35
326 K	209.1	183.96
327 K	209.66	184.56
328 K	210.22	185.17
329 K	210.77	185.77
330 K	211.33	186.37
331 K	212.26	186.98
332 K	213.01	187.58
333 K	213.75	188.18
334 K	214.49	188.78
335 K	215.24	189.37
336 K	215.8	189.97
337 K	216.54	190.57
338 K	217.28	191.16
339 K	218.21	191.76
340 K	218.77	192.35
341 K	219.7	192.94
342 K	220.26	193.53
343 K	221.01	194.12
344 K	221.56	194.71
345 K	222.49	195.3
346 K	223.24	195.88
347 K	223.8	196.47
348 K	223.98	197.05
349 K	225.1	197.64
350 K	226.77	198.22
351 K	226.59	198.8
352 K	226.96	199.38
353 K	227.7	199.96

[4]
Conditions	molar enthalpy [kJ/mol]
DSC	72.2
Static calorimetry	73.3

[Ni+2].c1cc[cH-]c1.c1cc[cH-]c1 [nickelocene]
Conditions	Molar enthalpy of transition or fusion [kJ/mol]	Normal melting temperature [°C]
[1]	–	177.7
[2]	19	–

molar heat capacity at constant pressure [J/K/mol], [3]
Conditions	Crystal	Gas
293 K	199.08	171.05
294 K	199.83	171.62
295 K	200.59	172.19
296 K	201.35	172.76
297 K	202.1	173.33
298 K	203.05	173.9
298.15 K	203.23	–
299 K	203.8	174.47
300 K	204.37	175.04
301 K	205.31	175.6
302 K	206.07	176.17
303 K	206.63	176.74
304 K	207.2	177.31
305 K	208.15	177.88
306 K	208.9	178.45
307 K	209.66	179.02
308 K	210.6	179.58
309 K	211.36	180.15
310 K	212.11	180.72
311 K	212.68	181.29
312 K	213.43	181.85
313 K	214	182.42
314 K	214.76	182.99
315 K	215.51	183.55
316 K	216.08	184.12
317 K	216.83	184.68
318 K	217.59	185.25
319 K	218.35	185.81
320 K	218.91	186.37
321 K	219.67	186.94
322 K	220.23	187.5
323 K	221.37	188.06
324 K	222.31	188.62
325 K	223.07	189.19
326 K	223.82	189.75
327 K	224.58	190.31
328 K	225.14	190.87
329 K	225.71	191.43
330 K	226.09	191.98
331 K	226.84	192.54
332 K	227.6	193.1
333 K	228.17	193.66
334 K	228.92	194.21
335 K	229.49	194.77
336 K	230.24	195.32
337 K	230.62	195.88
338 K	231.19	196.43
339 K	231.76	196.98
340 K	232.51	197.54
341 K	233.08	198.09
342 K	233.83	198.64
343 K	234.21	199.19
344 K	234.97	199.74
345 K	235.53	200.29
346 K	236.1	200.84
347 K	236.67	201.38
348 K	237.23	201.93
349 K	237.99	202.48
350 K	238.56	203.02
351 K	238.93	203.56
352 K	239.69	204.11
353 K	240.07	204.65

[4]
Conditions	molar enthalpy [kJ/mol]
DSC	71.4
Static calorimetry	72
